The IC50 is the concentration needed to halve the response being measured. A higher IC50 goes with lower potency.

For assay [1], the system named is CD8 T cells of peptide‐expanded PBMCs from A*02:01‐donors. The assay can be described thus: DimerX staining. It is filed as cell-based, human. The settings on record: Figure 5A; peptide‐stimulated PBMCs from A*02:01‐subject #14; representative experiment.
Assay [2] deals with HLA I molecule A*02:01, purified. The assay can be described thus: radioligand binding.

NTSAGFPYV [HRVC1798‐1806]: the “percentage of CD8 T cells recognizing DimerX‐peptides within the total of gated‐CD8 T cells” value in assay [1] amounted to 1.12%.

HRVC_(1791-1806) peptide gave a 50% inhibitory concentration (IC50) in assay [2] of 0.091 µM.

(Values after article PMC7753581 (The FASEB Journal, 2020).)
